According to patent publication US11491145B2, “Combination therapies comprising targeted therapeutics” (priority 2017, dated 2022):

Test: Average weight changes in H460 model
Assay type: in vivo
Settings: SCID mice, tracked 21 days, weight loss also in vehicle group, FIG. 1B
Method: In this study, each study group included 8 SCID mice with H460 xenograft. Each group received vehicle (once per week), talazoparib (0.3 mg/kg, one does per day for 4-5 days per week), SDC-TRAP-0063 (100 mg/kg, once per week), or a combination therapy of SDC-TRAP-0063 (100 mg/kg, once per week) and talazoparib (0.3 mg/kg, 5 days per week).
Average weight changes were also tracked for 21 days and the results for the groups treated with talazoparib, SDC-TRAP-0063, and a combination of SDC-TRAP-0063 and talazoparib were shown in FIG. 1B.

average weight changes (weight loss): Weight loss was observed
SMILES: Cn1ncnc1[C@H]1c2n[nH]c(=O)c3cc(F)cc(c23)N[C@@H]1c1ccc(F)cc1 [talazoparib, Talazoparib]
